Results: patent publication US20150250786A1, “PYRIMIDINE HYDROXY AMIDE COMPOUNDS AS PROTEIN DEACETYLASE INHIBITORS AND METHODS OF USE THEREOF” (THE TRUSTEES OF THE UNIVERSITY OF PENNSYLVANIA, priority 2012, published 2015)

Key:
HDAC3 = HDAC3 (Homo sapiens, UniProt O15379); assay: HDAC enzyme assay, HDAC3; settings: selectivity HDAC6 over HDAC3
HDAC2 = HDAC2 (Homo sapiens, UniProt Q92769); assay: HDAC enzyme assay, HDAC2; settings: selectivity HDAC6 over HDAC2
HDAC1 = HDAC1 (Homo sapiens, UniProt Q13547); assay: HDAC enzyme assay, HDAC1; settings: selectivity HDAC6 over HDAC1
Sequence of HDAC1 (Q13547 whole entry): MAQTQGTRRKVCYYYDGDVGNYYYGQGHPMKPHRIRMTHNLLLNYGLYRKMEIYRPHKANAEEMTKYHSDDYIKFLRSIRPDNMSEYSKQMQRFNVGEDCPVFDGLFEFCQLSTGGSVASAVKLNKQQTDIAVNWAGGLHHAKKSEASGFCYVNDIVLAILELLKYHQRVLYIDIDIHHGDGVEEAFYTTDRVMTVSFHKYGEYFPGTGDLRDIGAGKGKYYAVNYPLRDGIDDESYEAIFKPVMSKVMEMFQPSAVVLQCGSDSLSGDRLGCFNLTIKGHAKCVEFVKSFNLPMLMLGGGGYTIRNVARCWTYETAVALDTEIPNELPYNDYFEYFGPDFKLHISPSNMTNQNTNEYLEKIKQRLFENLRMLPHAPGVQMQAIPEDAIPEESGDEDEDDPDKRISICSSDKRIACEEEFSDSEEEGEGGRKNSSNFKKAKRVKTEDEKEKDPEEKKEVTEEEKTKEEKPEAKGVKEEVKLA

mice [1] = assay: Elevated plus maze (EPM); type: in vivo, mouse; settings: acute administration
[2] = system: RN46A-B14 serotonergic cell line; assay: α-tubulin K40 acetylation in RN46A-B14 cells (Western blot); type: cell-based, rat; settings: for acetylated (lysine 40) fraction of α-tubulin: 4 hours, TSA 0.6 μM, others 2.5 μM
Method: In FIG. 3, it was observed that subchronic treatment, consisting of 5 treatments at 48, 28, 24, 4 and ½ hours before sacrifice, led to greater increase in tubulin acetylation than did chronic treatment of 1 injection/day for 21 days. For cell culture, RN46B cells were treated for with 0.25, 2.5 or 25 μM drug in DMSO for 1, 4 or 24 hours as indicated. Tukey post-hoc analysis: * P=0.01 to 0.05, ** P=0.001-0.01, ***P<0.001 when compared with vehicle treatment.
Results are shown as percent change normalized to the vehicle treatment condition. The horizontal hard line depicts average and the dotted lines depict SEM of the vehicle treated wells. Representative Western blot images are presented. […] Representative Western blot images are presented. […] The drugs (5 mg/kg) were administered subchronically (at 24 h, 4 h and 30 min prior to sacrifice) to HDAC6 KO and WT littermates. The changes in tubulin acetylation were measured in tissue lysates from cortex (ctx), hippocampus (Hpc), dorsal Raphe nucleus (DRN) and cerebellum (cb). The tubulin acetylation levels in drug-treated mice are expressed as percent change of the vehicle-treated mice of the corresponding genotype. The horizontal lines depict the average tubulin acetylation±SEM in the vehicle treated mice. The representative Western blot images show the changes induced by each drug treatment in the hippocampus (left column) and dorsal raphe (right column) of WT and HDAC6 KO mice.
In contrast to the class I isoforms HDAC2 and 3, which are expressed highly and ubiquitously in the mouse brain, HDAC6 mRNA expression appears to be restricted to a small number of brain areas, with highest signal observed in DRN (FIG. 13f). […] No changes in total α-tubulin expression were detected (FIG. 14a).

[3] = system: RN46A-B14 serotonergic cell line; assay: Histone H3K9 acetylation in RN46A-B14 cells (Western blot); type: cell-based, rat; settings: 4 hours
mice [4] = assay: Chronic social defeat (CSD) and social interaction test; type: in vivo, mouse; settings: after CSD; fluoxetine 20 mg/kg, compound 73 5 mg/kg, compound 101 50 mg/kg
Method: Additionally, when combined with a dose of Citalopram with lower activity, these compounds seemed to have an additive effect (See FIG. 10). The dose of Citalopram chosen for this experiment was based on literature stating 2 mg/kg should be subactive, but this dose was found still showing an effect. Mice then underwent chronic social defeat stress, in which the mice are exposed to an aggressive resident mouse for 5 minutes daily for 10 days and are then tested on the 11th day in the social interaction test. Mice treated with vehicle for 20 total days, beginning 10 days before the defeat, show reduced time spent in the interaction zone when a target mouse is present when compared with control mice. […] The percent of mice found to be resilient, defined as spending more time in the interaction zone than the lowest control (i.e. ˜52 s), is higher in HDAC6 inhibitor groups. All behavior testing done using NIH Swiss mice, age 6-10 weeks. Tukey post-hoc analysis: * P=0.01 to 0.05, ** P=0.001-0.01, ***P<0.001 compared with vehicle treated mice.
The effects were observed 30 minutes after acute 50 mg/kg i.p. injection, but not for the lower dose (5 mg/kg). Combination of subactive doses of the HDAC6 selective inhibitors (5 mg/kg) and citalopram (0.5 mg/kg) produced robust potentiation of anti-immobility activity (n=8-29 per condition). […] No difference was observed between HDAC6 WT and KO when treated with the vehicle (n=6-15 per condition). FIG. 16c is a timeline showing treatment period, social defeat and social interaction (SI) testing.
A pro-resilient phenotype in the mouse CSD paradigm after serotonin-selective KO of HDAC6 was previously reported (Espallergues et al, 2012). Whether a chronic pharmacological inhibition of HDAC6 can replicate that phenotype is studied. […] On day 21, 24 h after the last injection, the mice were tested in the social interaction test. […] Significant effects were also observed when data was evaluated in terms of proportion of mice reaching criterion for resiliency.

[5] = system: α-tubulin acetylation in heart; assay: α-tubulin acetylation in heart after single systemic administration; type: in vivo, mouse; settings: 10 mg/kg
Method: The changes were significant at 30 minutes (F3,13=163.4, P<0.0001), 1 hour (F3,13=163.9, P<0.0001) and 4 hours (F3,14=4.703, P=0.0179) after the administrations.

mice [6] = assay: Open-field test; type: in vivo, mouse; settings: acute; compounds 73, 101 50 mg/kg; tubastatin A 10 mg/kg
[7] = system: α-tubulin acetylation in mouse whole brain lysates; assay: α-tubulin acetylation in whole brain lysates after single i.p. administration; type: in vivo; settings: compound 73 5 mg/kg, compound 101 50 mg/kg, tubastatin A 10 mg/kg, 30 min, 1 h, 4 h
[8] = Pharmacokinetics and brain bio-distribution in mice; type: in vivo, mouse
Method: […] Plasma samples were taken from all mice upon sacrifice. Brain samples were taken from the mice sacrificed at 5 and 15 minutes and 1 and 4 hours. The brain samples were homogenized in PBS and centrifuged at 14000 rpm for 5 minutes. The supernatant from the brain homogenate and the plasma samples were injected onto a LC/MS/MS for analysis. The compound level in the samples was determined by a standard curve in the appropriate matrix. Pharmacokinetic parameters were determined from the raw data by WinNonLin.

[9] = system: histone H3 lysine 9 acetylation; assay: Histone H3K9 acetylation in vivo (Western blot, ChIP); design: species or system mouse; settings: hippocampus; repeated i.p.; compound 73 5 mg/kg, sodium butyrate 1.2 g/kg

Sequence of HDAC3 (O15379 whole entry): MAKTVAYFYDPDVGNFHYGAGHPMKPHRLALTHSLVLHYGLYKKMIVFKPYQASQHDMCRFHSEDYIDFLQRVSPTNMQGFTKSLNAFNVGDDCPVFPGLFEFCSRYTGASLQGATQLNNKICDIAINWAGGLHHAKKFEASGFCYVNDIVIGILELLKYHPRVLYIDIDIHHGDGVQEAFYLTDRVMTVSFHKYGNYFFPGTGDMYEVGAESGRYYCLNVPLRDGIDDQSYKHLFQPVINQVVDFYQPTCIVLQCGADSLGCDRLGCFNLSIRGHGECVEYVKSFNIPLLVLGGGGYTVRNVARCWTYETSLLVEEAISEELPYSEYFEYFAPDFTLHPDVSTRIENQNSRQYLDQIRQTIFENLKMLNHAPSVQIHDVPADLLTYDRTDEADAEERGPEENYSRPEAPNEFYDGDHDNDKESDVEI
Sequence of HDAC3 (Q9Y618 395-489 partner limits assumed): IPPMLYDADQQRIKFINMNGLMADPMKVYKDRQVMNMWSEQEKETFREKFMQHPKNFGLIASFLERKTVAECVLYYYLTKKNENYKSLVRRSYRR
Sequence of HDAC2 (Q92769 whole entry): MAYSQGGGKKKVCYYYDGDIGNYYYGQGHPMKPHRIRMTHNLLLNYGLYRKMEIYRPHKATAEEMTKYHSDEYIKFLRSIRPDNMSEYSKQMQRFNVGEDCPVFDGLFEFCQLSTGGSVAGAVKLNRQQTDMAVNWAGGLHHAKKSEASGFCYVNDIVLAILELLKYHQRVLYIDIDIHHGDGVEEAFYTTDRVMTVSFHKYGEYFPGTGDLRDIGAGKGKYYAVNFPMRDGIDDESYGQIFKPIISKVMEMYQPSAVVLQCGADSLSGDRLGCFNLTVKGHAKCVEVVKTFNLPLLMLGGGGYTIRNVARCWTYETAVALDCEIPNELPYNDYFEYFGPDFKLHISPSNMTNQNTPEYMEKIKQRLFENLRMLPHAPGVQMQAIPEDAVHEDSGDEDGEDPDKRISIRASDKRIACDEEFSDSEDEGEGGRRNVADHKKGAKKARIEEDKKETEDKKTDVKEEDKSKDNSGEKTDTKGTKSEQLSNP

SMILES | HDAC3 fold versus HDAC6 (in brackets) (HDAC3) | HDAC2 fold versus HDAC6 (in brackets) (HDAC2) | HDAC1 fold versus HDAC6 (in brackets) (HDAC1) | other results
O=C(NO)c1cnc(NC2(c3ccccc3)CCCCC2)nc1 [Compound 84] | (613x) | (403.4x) | (302.2x) | 
O=C(NO)c1cnc(NC2(c3ccccc3Cl)CC2)nc1 [Compound 90] | (30.2x) | (26.2x) | (19.9x) | 
O=C(NO)c1cnc(NC2(c3ccccc3)CCCC2)nc1 [Compound 88] | (679.1x) | (296.1x) | (215.2x) | 
COc1ccc(C2(Nc3ncc(C(=O)NO)cn3)CC2)cc1 [Compound 97] | (16.4x) | (12.1x) | (8.3x) | 
Cc1ccc(C2(Nc3ncc(C(=O)NO)cn3)CC2)cc1 [Compound 93] | (51x) | (34.7x) | (25.9x) | 
CNC1=Nc2ccc(Cl)cc2C(c2ccccc2)=[N+]([O-])C1 [CDP, reference compound] |  |  |  | behavioral changes / time in the open arms of the maze (mice [1]): dramatically increased
CC(/C=C/C(=O)NO)=C\[C@@H](C)C(=O)c1ccc(N(C)C)cc1 [TSA, trichostatin A, reference compound] |  |  |  | acetylated (lysine 40) fraction of α-tubulin [2]: increases; increase in acetylation of histone H3 at lysine 9 ([3]; TSA 0.6 μM): 94%
CNCCC(Oc1ccc(C(F)(F)F)cc1)c1ccccc1 (stereo not drawn) [fluoxetine, reference compound] |  |  |  | percentage of resilient mice (mice [4]): 60%
O=C(NO)c1cnc(NC2(c3ccc(F)cc3)CCCCC2)nc1 [Compound 100] | (1428.4x) | (504.7x) | (339.9x) | 
CN1CCc2c(c3ccccc3n2Cc2ccc(C(=O)NO)cc2)C1 [Tubastatin A, reference compound] |  |  |  | increase of α-tubulin acetylation in heart [5]: 268%; exploratory activity in novel open-field arena (mice [6]): did not exhibit changes; increase in α-tubulin acetylation in tissue culture [2]: about 400%; acetylated (lysine 40) fraction of α-tubulin [2]: increases; change in histone H3K9 acetylation ([3]; 2.5 μM): no significant change; α-tubulin acetylation in whole brain lysates [7]: did not significantly change; 30 min plasma concentration (ng/ml) - 5 mg/kg ([8]; 5 mg/kg): 278 ng/mL; Cmax ([8]; mice, acute i.p. dosing): 496 ng/mL; T½ plasma ([8]; mice, acute i.p. dosing): 2 h; plasmatic half-life ([8]; mouse, in vivo): 2 h
CCCC(=O)[O-].[Na+] [sodium butyrate, reference compound] |  |  |  | histone H3K9 acetylation enrichment at promoter DNA (cFOS, BDNF promoter 4), ChIP [9]: increases in enrichment
O=C(NO)c1cnc(NC2(c3ccccc3C(F)(F)F)CC2)nc1 [Compound 91] | (169.4x) | (130.2x) | (72.3x) | 
O=C(NO)c1cnc(NC2(c3ccc(F)cc3)CC2)nc1 [Compound 81] | (46.4x) | (30.2x) | (18.3x) | 
